The text below walks through data of US7112579B2, “26,27-Homologated-20-EPI-2-alkyl-19-nor-vitamin D compounds” (Wisconsin Alumni Research Foundation, priority 1997, dated 2006).

Experiment [1] concerns the target T1, porcine intestinal vitamin D receptor (Sus scrofa, UniProt A3RGC1).
T1 construct: from tissue; host or cells: porcine intestine
T1 sequence (A3RGC1 1-427): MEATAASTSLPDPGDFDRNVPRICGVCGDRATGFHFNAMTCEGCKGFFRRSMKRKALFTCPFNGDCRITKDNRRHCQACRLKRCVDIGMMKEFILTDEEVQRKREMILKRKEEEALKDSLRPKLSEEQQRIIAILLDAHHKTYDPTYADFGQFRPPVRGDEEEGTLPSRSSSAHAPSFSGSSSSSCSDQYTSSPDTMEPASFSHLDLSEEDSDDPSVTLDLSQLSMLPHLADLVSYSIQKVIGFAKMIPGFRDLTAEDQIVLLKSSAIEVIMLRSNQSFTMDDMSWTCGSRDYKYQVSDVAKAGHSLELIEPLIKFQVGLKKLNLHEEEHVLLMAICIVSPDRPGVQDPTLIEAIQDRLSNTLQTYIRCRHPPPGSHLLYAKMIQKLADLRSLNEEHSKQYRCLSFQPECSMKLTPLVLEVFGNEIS
The experiment in a line: Competitive binding to the porcine intestinal vitamin D receptor ([3H]-1,25-(OH)2-D3 displacement). Details: species or system pig. The settings on record: for ability to bind the porcine intestinal vitamin D receptor, in words: FIGS. 1, 3 and 5, comparison in words.

The subject of experiment [2] is human promyelocyte HL-60 cells. The experiment in a line: Differentiation of HL-60 promyelocytes into monocytes (NBT reduction). To be noted: for HL-60 differentiation, more active than corresponding 2β-isomer: 12 vs 13, 18 vs 19; for induction of differentiation of HL-60 cells to monocytes, in words: FIGS. 2, 4, 6, comparison in words. The format is cell-based. From the text: In the next assay, the cellular activity of the synthesized compounds was established by studying their ability to induce differentiation of human promyelocyte HL-60 cells into monocytes.

For experiment [3], the system named is intestinal calcium transport. The experiment in a line: Intestinal calcium transport (everted sac), chronic doses 7 days i.p., vitamin D-deficient rats. The format is in vivo, rat. The settings on record: for intestinal calcium transport activity, in words: chronic 7 days, 130 and/or 260 pmol/day. On the procedure:
(§1) Male weanling rats were obtained from Sprague Dawley Co. (Indianapolis, Ind.) and fed a 0.47% calcium, 0.3% phosphorus vitamin D-deficient diet for 1 week and then given the same diet containing 0.02% calcium, 0.3% phosphorus for 2 weeks. During the last week they were given the indicated dose of compound by intraperitoneal injection in 0.1 ml 95% propylene glycol and 5% ethanol each day for 7 days. The control animals received only the 0.1 ml of 95% propylene glycol, 5% ethanol. Twenty-four hours after the last dose, the rats were sacrificed and intestinal calcium transport was determined by everted sac technique as previously described and serum calcium determined by atomic absorption spectrometry on a model 3110 Perkin Elmer instrument (Norwalk, Conn.). There were 5 rats per group and the values represent mean±SEM.
as §1, with “With respect to the data in Tables 3 and 4, male” for “Male”, “atormic” for “atomic”

The subject of experiment [4] is serum calcium (bone calcium mobilization). The experiment in a line: Serum calcium (bone calcium mobilization), chronic doses 7 days i.p., vitamin D-deficient rats. The format is in vivo, rat. The settings on record: for bone calcium mobilization (serum calcium) activity, in words: chronic 7 days, 130 and/or 260 pmol/day; for calcemic activity (intestinal calcium transport and bone calcium mobilization), in words: chronic doses, rats. Here is the method:
as §1
as §1, with “With respect to the data in Tables 3 and 4, male” for “Male”, “atormic” for “atomic”

Experiment [5] deals with intestinal calcium transport. As to the kind of experiment: Support of intestinal calcium transport in vitamin D-deficient rats on a low-calcium diet (3 weeks), 7 daily i.p. doses. The format is in vivo, rat. The settings on record: Table 7 panel 1.
Experiment [6] concerns bone calcium mobilization (serum Ca). As to the kind of experiment: Bone calcium mobilization (serum Ca) in vitamin D-deficient rats on a low-calcium diet (3 weeks), 7 daily i.p. doses. The format is in vivo, rat. The settings on record: Table 7 panel 1.
Where [7] appears, read: Table 4, 130 pmol/day/7 days i.p., mean±SEM.
[8] abbreviates: Table 4, 260 pmol/day/7 days i.p., mean±SEM.
The mark [9] stands for this setting: Table 4, 130 pmol/day/7 days i.p., mean±SEM, listed as 2β-Methyl-19-nor-1,25-(OH)2D3.
Setting [10] is: Table 4, 260 pmol/day/7 days i.p., mean±SEM, listed as 2β-Methyl-19-nor-1,25-(OH)2D3.
Where [11] appears, read: listed as 2β-methyl-19-nor-1,25-(OH)2D3.
Setting [12] is: Table 3, 130 pmol/day/7 days i.p., mean±SEM.
Where [13] appears, read: Table 3, 260 pmol/day/7 days i.p., mean±SEM.
Where [14] appears, read: Table 5, 130 pmol/day/7 days i.p.
Where [15] appears, read: Table 5, 260 pmol/day/7 days i.p.
Where [16] appears, read: Table 5, 130 pmol/day/7 days i.p., listed as 2β-Hydroxymethyl-19-nor-20(S)-1,25-(OH)2D3.
[17] abbreviates: Table 5, 260 pmol/day/7 days i.p., listed as 2β-Hydroxymethyl-19-nor-20(S)-1,25-(OH)2D3.
[18] abbreviates: Table 6, analog average ED50 / ED50 for 1α,25-(OH)2D3.

Entries after “also recorded” stand apart in the source; their conditions may differ.

For the compound `CC1[C@H](O)CC(=C/C=C2\CCC[C@]3(C)[C@@H]([C@H](C)CCCC(C)(C)O)CC[C@@H]23)C[C@H]1O` (stereo partly drawn) [Compound 12, 2α-methyl-19-nor-1,25-(OH)2D3], the “ability to bind the porcine intestinal vitamin D receptor, in words” value (from here on “ability”) in experiment [1] is “about as active as 1α,25-(OH)2D3”. Besides, the “HL-60 differentiation, more active than corresponding 2β-isomer” value in experiment [2] was determined as 100 times. Further, the “induction of differentiation of HL-60 cells to monocytes, in words” value (from here on “induction of differentiation … in words”) in experiment [2] is on record as “extremely potent”. In addition, the “Intestinal Calcium Transport (S/M)” value worked out at 4.3 ± 1.0 S/M in experiment [3] (setting [7]) and 5.3 ± 1.3 S/M in experiment [3] (setting [8]). The “intestinal calcium transport activity, in words” value in experiment [3] is reported as “some intestinal calcium transport activity”. In addition, the “Serum Calcium” value is reported as 4.8 ± 0.2 mg/100 ml in experiment [4] (setting [7]) and 5.8 ± 0.5 mg/100 ml in experiment [4] (setting [8]). Moreover, the “bone calcium mobilization (serum calcium) activity, in words” value in experiment [4] is reported as “relatively strong bone calcium mobilization at both dose levels”.
Regarding `CC1[C@H](O)CC(=C/C=C2\CCC[C@]3(C)[C@@H]([C@H](C)CCCC(C)(C)O)CC[C@@H]23)C[C@H]1O` (stereo partly drawn) [Compound 13, 1α,25-Dihydroxy-2β-methyl-19-nor-vitamin D3], the “receptor binding, less effective than 1α,25-(OH)2D3” value in experiment [1] (relative to 1α,25-(OH)2D3) turned out to be 39 fold. In experiment [2], the “induction of differentiation … in words” value is “high potency in cellular differentiation”. Also, the “Intestinal Calcium Transport (S/M)” value in experiment [3] (setting [9]) stood at 4.4 ± 0.8 S/M; in experiment [3] (setting [10]), 3.1 ± 0.9 S/M. In addition, the “intestinal calcium transport activity, in words” value in experiment [3] (setting [11]) is on record as “little, if any”. Besides, the “Serum Calcium” value in experiment [4] (setting [9]) is 4.1 ± 0.1 mg/100 ml; in experiment [4] (setting [10]), 3.8 ± 0.2 mg/100 ml. Also, the “bone calcium mobilization (serum calcium) activity, in words” value in experiment [4] (setting [11]) is recorded as “little, if any”. Also, the “calcemic activity (intestinal calcium transport and bone calcium mobilization), in words” value (from here on “calcemic activity”) in experiment [4] is reported as “lack of calcemic activity”.
In the case of `CC(CCCC(C)(C)O)C1CCC2C(=CC=C3CC(O)C(C)C(O)C3)CCCC21C` (stereo not drawn) [Compound 18, 2α-methyl-19-nor-20S-1,25-(OH)2D3], in experiment [1], the “ability” value is listed as “about as active as 1α,25-(OH)2D3”. Besides, the “HL-60 differentiation, more active than corresponding 2β-isomer” value in experiment [2] amounted to 10 times. Besides, the “induction of differentiation … in words” value in experiment [2] was “extremely potent”. The “Intestinal Calcium Transport (S/M)” value in experiment [3] (setting [12]) came out at 12.9 ± 1.9 S/M; in experiment [3] (setting [13]) it was 8.4 ± 1.1 S/M. Moreover, the “intestinal calcium transport activity, in words” value in experiment [3] was “significant change in intestinal calcium transport at both the 260 pmol and the 130 pmol dose levels”. For the same compound, the “Serum Calcium” value is 8.3 ± 0.7 mg/100 ml in experiment [4] (Table 3, 130 pmol/day/7 days i.p., mean±SEM, listed as 2α-Methyl-19-nor-20(S)-1,25-(OH)2D3); 8.3±0.7 mg/100 ml in experiment [4] (Table 3, 130 pmol/day/7 days i.p., mean±SEM, listed as 2α-methyl-19-nor-20S-1,25-(OH)2D3); 10.3 ± 0.11 mg/100 ml in experiment [4] (Table 3, 260 pmol/day/7 days i.p., mean±SEM, listed as 2α-Methyl-19-nor-20(S)-1,25-(OH)2D3); 10.3±0.11 mg/100 ml in experiment [4] (Table 3, 260 pmol/day/7 days i.p., mean±SEM, listed as 2α-methyl-19-nor-20S-1,25-(OH)2D3). In addition, in experiment [4], the “bone calcium mobilization (serum calcium) activity, in words” value was “much higher than that of the native hormone”.
In the case of `CC1C(O)CC(=CC=C2CCC[C@]3(C)[C@@H]([C@@H](C)CCCC(C)(C)O)CC[C@@H]23)CC1O` (stereo partly drawn) [Compound 19, 20(S)-1α,25-Dihydroxy-2β-methyl-19-nor-vitamin D3], the “ability” value in experiment [1] is listed as “about as active as 1α,25-(OH)2D3”. Moreover, the “induction of differentiation … in words” value in experiment [2] is listed as “high potency in cellular differentiation”. The “Intestinal Calcium Transport (S/M)” value in experiment [3] (setting [12]) is listed as 2.9 ± 0.3 S/M; in experiment [3] (setting [13]), 3.8 ± 0.1 S/M. Further, the “intestinal calcium transport activity, in words” value in experiment [3] was “little, if any, intestinal calcium transport activity”. Besides, the “Serum Calcium” value in experiment [4] (setting [12]) and in experiment [4] (setting [13]) was 4.4 ± 0.1 mg/100 ml each time. In addition, in experiment [4], the “bone calcium mobilization (serum calcium) activity, in words” value was “little, if any, bone mobilization activity”. The “calcemic activity” value in experiment [4] is recorded as “lack of calcemic activity”.
Take `C[C@H](CCCC(C)(C)O)[C@H]1CC[C@H]2/C(=C/C=C3C[C@@H](O)C(CO)[C@H](O)C3)CCC[C@]12C` (stereo partly drawn) [Compound 20, 1α,25-Dihydroxy-2α-(hydroxymethyl)-19-norvitamin D3]: the “ability” value in experiment [1] is “about the same binding affinity as 23”.
As for `CC(CCCC(C)(C)O)C1CCC2C(=CC=C3CC(O)C(CO)C(O)C3)CCCC21C` (stereo not drawn) [Compound 21, 1α,25-Dihydroxy-2β-(hydroxymethyl)-19-norvitamin D3], the “receptor binding, less effective than 2α-hydroxymethyl analog 20” value in experiment [1] (relative to 20) is listed as “ca. 8 times”.
Consider `CC(CCCC(C)(C)O)C1CCC2C(=CC=C3CC(O)C(CO)C(O)C3)CCCC21C` [Compound 22, 2α-Hydroxymethyl-19-nor-20(S)-1,25-(OH)2D3], for which the “ability” value in experiment [1] was “almost equivalent to 1α,25-(OH)2D3”. The “induction of differentiation … in words” value in experiment [2] is reported as “high potency in cellular differentiation”. Further, the “Intestinal Calcium Transport (S/M)” value is on record as 5.0 ± 0.3 S/M in experiment [3] (setting [14]) and 5.8 ± 0.4 S/M in experiment [3] (setting [15]). Besides, the “Serum Calcium” value came to 4.0 ± 0.1 mg/100 ml in experiment [4] (setting [14]) and 3.9 ± 0.1 mg/100 ml in experiment [4] (setting [15]). For the same compound, the “calcemic activity” value in experiment [4] is “relatively inactive; also recorded: lack of calcemic activity”.
For `CC(CCCC(C)(C)O)C1CCC2C(=CC=C3CC(O)C(CO)C(O)C3)CCCC21C` [Compound 23, 20(S)-1α,25-Dihydroxy-2β-(hydroxymethyl)-19-norvitamin D3], the “receptor binding, less potent than 22 and 1α,25-(OH)2D3” value in experiment [1] (relative to 22 and 1α,25-(OH)2D3) is 6–8 ×. Also, in experiment [2], the “induction of differentiation … in words” value is “high potency in cellular differentiation”. The “Intestinal Calcium Transport (S/M)” value came to 3.5 ± 0.7 S/M in experiment [3] (setting [16]) and 3.5 ± 0.3 S/M in experiment [3] (setting [17]). For the same compound, the “Serum Calcium” value in experiment [4] (setting [16]) stood at 3.6 ± 0.1 mg/100 ml; in experiment [4] (setting [17]) it was 3.5 ± 0.2 mg/100 ml. For the same compound, the “calcemic activity” value in experiment [4] is “relatively inactive; also recorded: lack of calcemic activity”.
As for `CCC(O)(CC)CCCC(C)C1CCC2C(=CC=C3CC(O)C(C)C(O)C3)CCCC21C` [Compound 36, 20(S)-1α,25-Dihydroxy-2α-methyl-26,27-dihomo-19-nor-vitamin D3], the “VDR Binding ratio” value in experiment [1] (setting [18]) was determined as 3.6. Also, in experiment [1] (Table 6, concentration for 50% displacement of radiolabeled 1α,25-(OH)2D3, read-out: VDR Binding ED50), the EC50 stood at 3.1 nM. For the same compound, the “HL-60 Differentiation Activity ratio” value in experiment [2] (setting [18]) stood at 0.01. In addition, the “HL-60 Differentiation ED50” value in experiment [2] (Table 6, concentration inducing 50% maturation (NBT)) was 0.06 nM. Besides, the “Ca Transport S/M (mean ± SEM)” value is reported as 5.8 ± 0.4^d^1 S/M in experiment [5] (32 pmol daily x 7 i.p.) and 8.4 ± 0.8^d^2 S/M in experiment [5] (65 pmol daily x 7 i.p.). Also, the “Serum Ca (mean ± SEM)” value in experiment [6] (32 pmol daily x 7 i.p.) was 5.9 ± 0.2^d^1; in experiment [6] (65 pmol daily x 7 i.p.) it was 9.3 ± 0.2^d^2.
